Measurements reported in ChEMBL document CHEMBL3885881, “DrugMatrix”.

Organism: Rattus norvegicus
Assay: DrugMatrix - Regimen: Daily Repeat
Type: toxicity, organism-based, Sprague-Dawley
Parameters: regimen Daily Repeat, gender Male, age 6-8 weeks
Details: in vivo, po, route oral GAVAGE, vehicle .5 % CMC; for PHOSPHORUS / POTASSIUM / SODIUM / TOTAL BILIRUBIN / TOTAL PROTEIN / ALANINE AMINOTRANSFERASE / ALBUMIN / ALKALINE PHOSPHATASE / ASPARTATE AMINOTRANSFERASE / BLOOD UREA NITROGEN / CHLORIDE / CHOLESTEROL / CREATINE PHOSPHOKINASE / CREATININE / GLUCOSE: tissue Plasma; for BASOPHIL / EOSINOPHIL / ERYTHROCYTE COUNT / HEMATOCRIT / HEMOGLOBIN / LEUKOCYTE COUNT / LYMPHOCYTE / MEAN CORPUSCULAR HEMOGLOBIN / MEAN CORPUSCULAR HEMOGLOBIN CONCENTRATION / MEAN CORPUSCULAR VOLUME / MONOCYTE / NEUTROPHIL / PLATELET COUNT: tissue Blood
[1] = 0.001 mg/kg, 72 h, dose level M1, time 3 day
[2] = 0.001 mg/kg, 120 h, dose level M1, time 5 day
[3] = 0.02 mg/kg, 72 h, dose level High, time 3 day
[4] = 0.02 mg/kg, 120 h, dose level High, time 5 day

For `Clc1cc2c(cc1Cl)Oc1cc(Cl)c(Cl)cc1O2` [2,3,7,8-TETRACHLORODIBENZO-P-DIOXIN], the PHOSPHORUS [1] was 13.1 mg/dL, the POTASSIUM [1] was 6.53 MEQ/L and the SODIUM [1] was 148.33 MEQ/L. For the same molecule, the “TOTAL BILIRUBIN” value [1] was 0.33 mg/dL, the “TOTAL PROTEIN” value [1] was 5.93 G/DL and the BASOPHIL [2] was 0.47%. The EOSINOPHIL [2] was 0.23%, the “ERYTHROCYTE COUNT” value [2] was 7.01 x10E6/uL and the HEMATOCRIT [2] was 45.3%. The HEMOGLOBIN [2] was 14.33 G/DL, the “LEUKOCYTE COUNT” value [2] was 13.09 x10E3/uL and the LYMPHOCYTE [2] was 85.1%. For the same molecule, the “MEAN CORPUSCULAR HEMOGLOBIN” value [2] was 20.47 pg, the “MEAN CORPUSCULAR HEMOGLOBIN CONCENTRATION” value [2] was 31.6 G/DL and the “MEAN CORPUSCULAR VOLUME” value [2] was 64.6 fL. The MONOCYTE [2] was 2.03%, the NEUTROPHIL [2] was 11.33% and the “PLATELET COUNT” value [2] was 977.33 x10E3/uL. For the same molecule, the “ALANINE AMINOTRANSFERASE” value [2] was 39.33 u/L, the ALBUMIN [2] was 3.63 G/DL and the “ALKALINE PHOSPHATASE” value [2] was 300 u/L. For the same molecule, the “ASPARTATE AMINOTRANSFERASE” value [2] was 62.33 u/L, the “BLOOD UREA NITROGEN” value [2] was 12.33 mg/dL and the CHLORIDE [2] was 101.67 MEQ/L. For the same molecule, the CHOLESTEROL [2] was 84.33 mg/dL, the “CREATINE PHOSPHOKINASE” value [2] was 173.33 u/L and the CREATININE [2] was 0.43 mg/dL. The GLUCOSE [2] was 173.33 mg/dL, the PHOSPHORUS [2] was 12.97 mg/dL and the POTASSIUM [2] was 6.93 MEQ/L. The SODIUM [2] was 149.33 MEQ/L, the “TOTAL BILIRUBIN” value [2] was 0.5 mg/dL and the “TOTAL PROTEIN” value [2] was 6.07 G/DL. For the same molecule, the BASOPHIL [3] was 0.37%, the EOSINOPHIL [3] was 0.47% and the “ERYTHROCYTE COUNT” value [3] was 6.77 x10E6/uL. For the same molecule, the HEMATOCRIT [3] was 41.33%, the HEMOGLOBIN [3] was 12.93 G/DL and the “LEUKOCYTE COUNT” value [3] was 11.64 x10E3/uL. The LYMPHOCYTE [3] was 80.13%, the “MEAN CORPUSCULAR HEMOGLOBIN” value [3] was 19.13 pg and the “MEAN CORPUSCULAR HEMOGLOBIN CONCENTRATION” value [3] was 31.33 G/DL. For the same molecule, the “MEAN CORPUSCULAR VOLUME” value [3] was 61.07 fL, the MONOCYTE [3] was 2.43% and the NEUTROPHIL [3] was 15.43%. For the same molecule, the “PLATELET COUNT” value [3] was 1395 x10E3/uL, the “ALANINE AMINOTRANSFERASE” value [3] was 38.67 u/L and the ALBUMIN [3] was 3.43 G/DL. The “ALKALINE PHOSPHATASE” value [3] was 312.67 u/L, the “ASPARTATE AMINOTRANSFERASE” value [3] was 58.67 u/L and the “BLOOD UREA NITROGEN” value [3] was 10.67 mg/dL. For the same molecule, the CHLORIDE [3] was 103.33 MEQ/L, the CHOLESTEROL [3] was 75 mg/dL and the “CREATINE PHOSPHOKINASE” value [3] was 168.33 u/L. It also gave a CREATININE [3] of 0.3 mg/dL, a GLUCOSE [3] of 187.33 mg/dL and a PHOSPHORUS [3] of 12.63 mg/dL. The POTASSIUM [3] was 7.03 MEQ/L, the SODIUM [3] was 147 MEQ/L and the “TOTAL BILIRUBIN” value [3] was 0.27 mg/dL. The “TOTAL PROTEIN” value [3] was 5.57 G/DL, the BASOPHIL [4] was 0.5% and the EOSINOPHIL [4] was 0.27%. The “ERYTHROCYTE COUNT” value [4] was 7.05 x10E6/uL, the HEMATOCRIT [4] was 43.57% and the HEMOGLOBIN [4] was 13.87 G/DL. For the same molecule, the “LEUKOCYTE COUNT” value [4] was 16.09 x10E3/uL, the LYMPHOCYTE [4] was 87.33% and the “MEAN CORPUSCULAR HEMOGLOBIN” value [4] was 19.67 pg. The “MEAN CORPUSCULAR HEMOGLOBIN CONCENTRATION” value [4] was 31.8 G/DL, the “MEAN CORPUSCULAR VOLUME” value [4] was 61.9 fL and the MONOCYTE [4] was 1.77%. The NEUTROPHIL [4] was 8.93%, the “PLATELET COUNT” value [4] was 1151.33 x10E3/uL and the “ALANINE AMINOTRANSFERASE” value [4] was 46 u/L. For the same molecule, the ALBUMIN [4] was 3.5 G/DL, the “ALKALINE PHOSPHATASE” value [4] was 413.67 u/L and the “ASPARTATE AMINOTRANSFERASE” value [4] was 68 u/L. For the same molecule, the “BLOOD UREA NITROGEN” value [4] was 12 mg/dL, the CHLORIDE [4] was 102.33 MEQ/L and the CHOLESTEROL [4] was 85.67 mg/dL. For the same molecule, the “CREATINE PHOSPHOKINASE” value [4] was 209.67 u/L, the CREATININE [4] was 0.4 mg/dL and the GLUCOSE [4] was 184.33 mg/dL. For the same molecule, the PHOSPHORUS [4] was 12.77 mg/dL, the POTASSIUM [4] was 6.53 MEQ/L and the SODIUM [4] was 148.67 MEQ/L. The “TOTAL BILIRUBIN” value [4] was 0.4 mg/dL and the “TOTAL PROTEIN” value [4] was 5.8 G/DL.
